Assay results: patent publication US20120284853A1, “HERBICIDE-TOLERANT PLANTS” (BASF AGROCHEMICAL PRODUCTS, B.V., priority 2009, published 2012)

Assays:
rice plants = assay: Greenhouse spray test of M0 regenerants, rated for herbicide injury; assay type: in vivo; settings: 400-1600 g ai/ha with 0.1% methylated seed oil, subset 800 g ai/ha, rated 1 and 2 weeks after treatment
Procedure: Selected mutants and escapes were transferred to small pots. Wild-type cultivars and 3 biovars of red rice were germinated from seed to serve as controls.
After ca. 3 weeks post-transplant, M0 regenerants were sprayed using a track sprayer with 400-1600 g ai/ha cycloxydim (BAS 517H) supplemented with 0.1% methylated seed oil. After the plants had adapted to greenhouse conditions, a subset were sprayed with 800 g ai/ha cycloxydim. Once sprayed, plants were kept on drought conditions for 24 hours before being watered and fertilized again. Sprayed plants were photographed and rated for herbicide injury at 1 (FIG. 3) and 2 weeks after treatment (FIG. 4). […] FIGS. 5-15 provide nucleic acid and/or amino acid sequences of acetyl-Coenzyme A carboxylase enzymes from various plants. FIG. 17 provides a graph showing results for mutant rice versus various ACCase inhibitors.

[1] = test system: ACCase-inhibitor tolerant rice plants; assay: Field treatment of ACCase-inhibitor tolerant rice plants; assay type: in vivo; settings: 600 g/ha treatment; data not shown
[2] = test system: rice calli derived from Oryza sativa subsp. indica; assay: Kill curves of rice calli in tissue culture (toxic levels of ACCase inhibitors); assay type: cell-based; settings: determined by kill curves and observations of continued culture; rice calli on R001M
Procedure: FIG. 1 is a bar graph showing relative growth rice calli derived from Oryza sativa subsp. indica grown in the presence of difference selection levels of herbicide.
Once tissue culture conditions were determined, further establishment of selection conditions were established through the analysis of tissue survival in kill curves with cycloxydim, tepraloxydim, sethoxydim (FIG. 1) or haloxyfop (not shown). Careful consideration of accumulation of the herbicide in the tissue, as well as its persistence and stability in the cells and the culture media was performed. Through these experiments, a sub-lethal dose has been established for the initial selection of mutated material.
After the establishment of the starting dose of sethoxydim, cycloxydim, tepraloxydim, and haloxyfop in selection media, the tissues were selected in a step-wise fashion by increasing the concentration of the ACCase inhibitor with each transfer until cells are recovered that grew vigorously in the presence of toxic doses (see FIG. 2). […] Over 26,000 calli were subjected to selection for 4-5 subcultures until the selective pressure was above toxic levels as determined by kill curves and observations of continued culture. Toxic levels were determined to be 50 μM sethoxydim, 20 μM cycloxydim, 2.5 μM tepraloxydim (FIG. 1) and 10 μM haloxyfop (not shown).

SMILES | herbicide injury (rice plants; control plants and tissue culture escapes) | herbicide injury (rice plants; plants containing the I1,781(Am)L heterozygous mutation) | herbicide tolerance phenotype in the field [1] | Toxic levels [2]
CCCC(=NOCC)C1=C(O)CC(C2CCCSC2)CC1=O (centres unmarked) [cycloxydim] | heavily damaged | No injury | Herbicide tolerance phenotypes as described herein have also been exhibited | –
CCC/C(=N\OCC)C1=C(O)CC(CC(C)SCC)CC1=O (centres unmarked) [sethoxydim] | – | – | – | 50 µM
CC/C(=N\OC/C=C/Cl)C1=C(O)CC(C2CCOCC2)CC1=O (centres unmarked) [tepraloxydim] | – | – | – | 2.5 µM
